According to patent US6720346B2, “Thiazole benzamide derivatives and pharmaceutical compositions for inhibiting cell proliferation” (Agouron Pharmaceuticals, Inc., priority 2001, dated 2004):

How the values were obtained:
[1] = system: HCT-116 cell line; assay: Inhibition of cell growth, MTT tetrazolium salt assay; type: cell-based; conditions: for IC50: Homo sapiens, HCT-116, 120 h, MTT, three to five days
Protocol: Inhibition of cell growth was measured using the tetrazolium salt assay, which is based on the ability of viable cells to reduce 3-(4,5-dimethylthiazol-2-yl)-2,5-[2H]-diphenyltetrazolium bromide (MTT) to formazan (Mossman, Journal of Immunological Methods, 65, (1983), pp. 55-58). The water-insoluble purple formazan product was then detected spectrophotometrically. The HCT-116 cell line was used as a representative cancer cell line and grown in 96-well plates. Cells were plated in McCoy's 5A Medium at a volume of 135 μl/well. Plates were incubated for four hours before addition of inhibitor compounds. Different concentrations of inhibitor compounds were added in 0.5% (v/v) dimethylsulfoxide (15 μL/well), and cells were incubated at 37° C. (5% CO2) for three to five days. At the end of the incubation, MTT was added to a final concentration of 0.2 mg/mL, and cells were incubated for 4 hours more at 37° C. After centrifugation of the plates and removal of medium, the absorbance of the formazan (solubilized in dimethylsulfoxide) was measured at 540 nm. The concentration of inhibitor compound causing 50% (IC50) or 90% ([…]) inhibition of growth was determined from the linear portion of a semi-log plot of inhibitor concentration versus percent inhibition. All results were compared to control cells treated only with 0.5% (v/v) dimethylsulfoxide.

[2] = biological target: T1, human CDK4/cyclin D3 (Homo sapiens, UniProt P11802); assay: Inhibition of CDK4/cyclin D retinoblastoma kinase activity (Ki; % inhibition); type: biochemical; conditions: for Ki: apparent Ki, CDK4/cyclin D3, Rb substrate
T1 construct: made in house; host or cells: insect cells co-infected with baculovirus vectors
T1 sequence (P11802 whole entry): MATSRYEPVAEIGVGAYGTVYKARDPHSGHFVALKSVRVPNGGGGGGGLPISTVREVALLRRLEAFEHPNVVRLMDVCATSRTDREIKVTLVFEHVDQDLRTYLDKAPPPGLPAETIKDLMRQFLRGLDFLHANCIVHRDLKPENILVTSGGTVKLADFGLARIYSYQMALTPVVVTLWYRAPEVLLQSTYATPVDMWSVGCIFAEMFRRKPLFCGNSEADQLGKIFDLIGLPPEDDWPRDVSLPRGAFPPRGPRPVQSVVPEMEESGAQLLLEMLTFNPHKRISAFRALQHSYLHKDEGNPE
T1 sequence (P30281 1-264 partner limits assumed): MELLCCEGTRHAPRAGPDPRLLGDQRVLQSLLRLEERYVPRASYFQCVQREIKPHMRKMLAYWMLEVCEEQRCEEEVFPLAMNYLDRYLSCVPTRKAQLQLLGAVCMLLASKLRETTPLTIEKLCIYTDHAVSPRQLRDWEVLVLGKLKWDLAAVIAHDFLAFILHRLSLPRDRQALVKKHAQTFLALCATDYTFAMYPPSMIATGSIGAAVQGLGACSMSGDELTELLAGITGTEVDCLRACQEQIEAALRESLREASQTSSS
Protocol: (§1) Cyclin-dependent kinase activity was measured by quantifying the enzyme-catalyzed, time-dependent incorporation of radioactive phosphate from [^32P]ATP or [^33P]ATP into a protein substrate. Unless noted otherwise, assays were performed in 96-well plates in a total volume of 50 μL, in the presence of 10 mM HEPES (N-[2-hydroxyethyl]piperazine-N′-[2-ethanesulfonic acid]) (pH 7.4), 10 mM MgCl2, 25 μM adenosine triphosphate (ATP), 1 mg/mL ovalbumin, 5 μg/mL leupeptin, 1 mM dithiothreitol, 10 mM β-glycerophosphate, 0.1 mM sodium vanadate, 1 mM sodium fluoride, 2.5 mM ethylene glycol-bis(β-aminoethyl ether)-N,N,N′N′-tetraacetic acid (EGTA), 2% (v/v) dimethylsulfoxide, and 0.03-0.4 μCi [^32/33P]ATP per reaction. Reactions were initiated with enzyme, incubated at 30° C., and terminated after 20 minutes by the addition of ethylenediaminetetraacetic acid (EDTA) to 250 mM. The phosphorylated substrate was then captured on a nitrocellulose or phosphocellulose membrane using a 96-well filtration manifold, and unincorporated radioactivity was removed by repeated washing with 0.85% phosphoric acid. Radioactivity was quantified by exposing the dried membranes to a phosphorimager.
(§2) Compounds from combinatorial libraries were screened from 96-well plates for % inhibition of CDK activity at 30 nM theoretical compound concentration. Inhibition was measured relative to control wells that contained all reaction components including 2% (v/v) DMSO but no compound, after subtraction of background radioactivity measured in the absence of enzyme. Apparent Ki values of discrete compounds were measured by assaying enzyme activity in the presence of different inhibitor compound concentrations and subtracting the background radioactivity measured in the absence of enzyme. The kinetic parameters (kcat, Km for ATP) were measured for each enzyme under the usual assay conditions by determining the dependence of initial rates on ATP concentration. Inhibition data were fit to an equation for competitive inhibition using Kaleidagraph (Synergy Software), or were fit to an equation for competitive tight-binding inhibition using the software KineTic (BioKin, Ltd.).
A complex of human CDK4 and genetically truncated (1-264) cyclin D3 was purified using traditional biochemical chromatographic techniques from insect cells that had been co-infected with the corresponding baculovirus expression vectors (see e.g., Meijer and Kim, “Chemical Inhibitors of Cyclin-Dependent Kinases,” Methods in Enzymol., 283 (1997), pp. 113-128.). The enzyme complex (5 nM) was assayed with 0.3-0.5 μg of purified recombinant retinoblastoma protein fragment (Rb) as a substrate. The engineered Rb fragment (residues 386-928 of the native retinoblastoma protein; 62.3 kDa) contains the majority of the phosphorylation sites found in the native 106-kDa protein, as well as a tag of six histidine residues for ease of purification. Phosphorylated Rb substrate was captured by microfiltration on a nitrocellulose membrane and quantified using a phosphorimager as described above. For measurement of tight-binding inhibitors, the assay duration was extended to 60 minutes, during which the time-dependence of product formation was linear and initial rate conditions were met.

[3] = biological target: T2, CDK2/cyclin A (Homo sapiens, UniProt P24941); assay: Inhibition of CDK2/cyclin A retinoblastoma kinase activity (Ki; % inhibition); type: biochemical; conditions: for Ki: apparent Ki, CDK2/cyclin A, Rb substrate
T2 construct: made in house; host or cells: CDK2: insect cells (baculovirus); cyclin A: E. coli
Protocol: as §1, §2
CDK2 was purified using published methodology (Rosenblatt et al., “Purification and Crystallization of Human Cyclin-dependent Kinase 2,” J. Mol. Biol., 230, 1993, pp. 1317-1319) from insect cells that had been infected with a baculovirus expression vector. […] A complex of CDK2 and proteolyzed cyclin A was prepared and purified by gel filtration. The substrate for this assay was the same Rb substrate fragment used for the CDK4 assays, and the methodology of the CDK2/delta cyclin A and the CDK4/delta cyclin D3 assays was essentially the same, except that CDK2 was present at 10 nM or 19 nM. The duration of the assay was 60 or 75 minutes, during which the time-dependence of product formation was linear and initial rate conditions were met.

[4] = HCT-116 cells, 0.25 μM compound

Row | SMILES | CDK4 % Inhibition at 0.03 μM ([2]; 0.03 μM compound) [%] | CDK2 % Inhibition at 0.03 μM ([3]; 0.03 μM compound) [%] | CDK4 % Inhibition at 0.03 μM ([2]; at 0.03 μM) [%] | CDK2 % Inhibition at 0.03 μM ([3]; at 0.03 μM) [%] | HCT-116 % Inhibition at 0.1 μM ([1]; HCT-116 cells, 0.1 μM compound) [%] | HCT-116 % Inhibition at 0.25 μM [1, 4] [%] | HCT-116 % Inhibition at 0.25 μM ([1]; HCT-116, at 0.25 μM) [%] | also measured
1 | C[C@H](NC(=O)c1ccc(Nc2nc(N)c(C(=O)c3c(F)cccc3F)s2)cc1)[C@@H]1CCCN1C [Example A69] |  |  |  |  |  |  |  | IC50 [1]: 2100 nM; Ki [2]: 234 nM; Ki [3]: 14.6 nM
2 | CC(C)CNC(=O)c1ccc(Nc2nc(N)c(C(=O)c3c(F)cccc3F)s2)cc1 [Example G126] |  |  | 7 | 3 |  |  | 53 | HCT-116 % Inhibition at 0.1 μM ([1]; HCT-116, at 0.1 μM): 0%
3 | COC(=O)c1cccc(NC(=O)c2ccc(Nc3nc(N)c(C(=O)c4c(F)cccc4F)s3)cc2)c1 [Example G106] |  |  | 7 | 7 |  |  | 61 | HCT-116 % Inhibition at 0.1 μM ([1]; HCT-116, at 0.1 μM): 0%
4 | CN1CC[C@H](NC(=O)c2ccc(Nc3nc(N)c(C(=O)c4c(F)cccc4F)s3)cc2)C1 [Example A32, 4-[4-Amino-5-(2,6-difluoro-benzoyl)-thiazol-2-ylamino]-N-(1-methyl-pyrrolidin-3S-yl)-benzamide] |  |  |  |  |  |  |  | IC50 [1]: 280 nM; Ki [2]: 6 nM; Ki [3]: 77 nM
5 | COc1ccc(NC(=O)c2ccc(Nc3nc(N)c(C(=O)c4c(F)cccc4F)s3)cc2)cc1O [Example G14] |  |  | 26 | 9 |  |  | 50 | 
6 | CC(=O)N1CCN(C(=O)c2ccc(Nc3nc(N)c(C(=O)c4c(F)cccc4F)s3)cc2)CC1 [Example G65] |  |  | 17 | 12 |  |  | 58 | 
7 | Nc1nc(Nc2ccc(C(=O)Nc3cc(F)cc(F)c3)cc2)sc1C(=O)c1c(F)cccc1F [Example G68] |  |  | 3 | 6 |  |  | 59 | 
8 | CC(C)N(Cc1ccccc1)C(=O)c1ccc(Nc2nc(N)c(C(=O)c3c(F)cccc3F)s2)cc1 [Example G70] |  |  | 10 | −4 |  |  | 53 | 
9 | C[C@@H](NC(=O)c1ccc(Nc2nc(N)c(C(=O)c3c(F)cccc3F)s2)cc1)C(=O)O [Example A65] |  |  |  |  |  |  |  | IC50 [1]: > 500 nM; Ki [2]: 57 nM; Ki [3]: 160 nM
10 | Nc1nc(Nc2ccc(C(=O)NCCc3ccncc3)cc2)sc1C(=O)c1c(F)cccc1F [Example A29, 4-[4-Amino-5-(2,6-difluoro-benzoyl)-thiazol-2-ylamino]-N-(2-pyridin-4-yl-ethyl)-benzamide] |  |  |  |  |  |  |  | IC50 [1]: 220 nM; Ki [2]: 26 nM; Ki [3]: 52 nM
11 | CN(C)C(=O)CN(C)C(=O)c1ccc(Nc2nc(N)c(C(=O)c3c(F)cccc3F)s2)cc1 [Example G5] |  |  | −3 | −23 |  |  | 47 | 

The next lines start with results.

Row | CDK4 % Inhibition at 0.03 μM ([2]; 0.03 μM compound) [%] | CDK2 % Inhibition at 0.03 μM ([3]; 0.03 μM compound) [%] | CDK4 % Inhibition at 0.03 μM ([2]; at 0.03 μM) [%] | CDK2 % Inhibition at 0.03 μM ([3]; at 0.03 μM) [%] | SMILES | HCT-116 % Inhibition at 0.1 μM ([1]; HCT-116 cells, 0.1 μM compound) [%] | HCT-116 % Inhibition at 0.25 μM [1, 4] [%] | HCT-116 % Inhibition at 0.25 μM ([1]; HCT-116, at 0.25 μM) [%] | also measured
12 | 40 | 39 |  |  | Nc1nc(Nc2ccc(C(=O)NCc3ccco3)cc2)sc1C(=O)c1c(F)cccc1F [Example G249] | 37 | 80 |  | 
13 | 23 | 13 |  |  | Nc1nc(Nc2ccc(C(=O)NCCCc3ccccc3)cc2)sc1C(=O)c1c(F)cccc1F [Example G325] | 6 | 51 |  | 
14 | −6 | 20 |  |  | Nc1nc(Nc2ccc(C(=O)NC3c4ccccc4CC3O)cc2)sc1C(=O)c1c(F)cccc1F (stereo not shown) [Example G376] | 27 | 64 |  | 
15 |  |  | 24 | 24 | CCC(CO)NC(=O)c1ccc(Nc2nc(N)c(C(=O)c3c(F)cccc3F)s2)cc1 (stereo not shown) [Example G156] |  |  |  | HCT-116 % Inhibition at 0.1 μM ([1]; HCT-116, at 0.1 μM, 0.1 µM): 0%; HCT-116 % Inhibition at 0.25 μM ([1]; HCT-116, at 0.25 μM, 0.25 µM): 61%
16 | 23 | 45 |  |  | Nc1ccccc1CNC(=O)c1ccc(Nc2nc(N)c(C(=O)c3c(F)cccc3F)s2)cc1 [Example G384] | 38 | 84 |  | 
17 | −3 | 10 |  |  | C[C@@H](CNC(=O)c1ccc(Nc2nc(N)c(C(=O)c3c(F)cccc3F)s2)cc1)c1ccccc1 [Example G375] | 26 | 62 |  | 
18 | 19 | 13 |  |  | Nc1nc(Nc2ccc(C(=O)NCCc3ccccc3F)cc2)sc1C(=O)c1c(F)cccc1F [Example G206] | 13 | 58 |  | 
19 | 17 | 26 |  |  | CC(C)(C)c1ccc(CNC(=O)c2ccc(Nc3nc(N)c(C(=O)c4c(F)cccc4F)s3)cc2)cc1 [Example G270] | 15 | 45 |  | 
20 | 36 | 39 |  |  | Nc1nc(Nc2ccc(C(=O)NCc3ccc(Cl)cc3Cl)cc2)sc1C(=O)c1c(F)cccc1F [Example G236] | 16 | 66 |  | 
21 | 7 | −14 |  |  | N#CCCNc1ccccc1NC(=O)c1ccc(Nc2nc(N)c(C(=O)c3c(F)cccc3F)s2)cc1 [Example G323] | 14 | 72 |  | 
22 | 21 | 2 |  |  | CC(C)NC(=O)CN1CCN(C(=O)c2ccc(Nc3nc(N)c(C(=O)c4c(F)cccc4F)s3)cc2)CC1 [Example G335] | 3 | 42 |  | 
23 | −10 | 15 |  |  | Nc1nc(Nc2ccc(C(=O)NC(CO)CSCc3ccccc3)cc2)sc1C(=O)c1c(F)cccc1F (stereo not shown) [Example G383] | 33 | 51 |  | 
24 |  |  | 11 | 0 | Nc1nc(Nc2ccc(C(=O)NCC3CC3)cc2)sc1C(=O)c1c(F)cccc1F [Example G144] |  |  | 57 | HCT-116 % Inhibition at 0.1 μM ([1]; HCT-116, at 0.1 μM): 0%
25 | 14 | −21 |  |  | CC(=O)N(C)C1CCN(C(=O)c2ccc(Nc3nc(N)c(C(=O)c4c(F)cccc4F)s3)cc2)C1 (stereo not shown) [Example G348] | 23 | 51 |  | 
